This passage reports IC50 results from US20080176898A1, “Phenyl Acetamides” (Bayer HealthCare AG, priority 2004, published 2008).

For one assay, the target named is T1, human CysLT1 receptor (Homo sapiens, UniProt Q9Y271).
T1 construct: expressed in transfected cells; host or cells: CHO K1 cells constitutively expressing aequorin
T1 sequence (Q9Y271 1-337): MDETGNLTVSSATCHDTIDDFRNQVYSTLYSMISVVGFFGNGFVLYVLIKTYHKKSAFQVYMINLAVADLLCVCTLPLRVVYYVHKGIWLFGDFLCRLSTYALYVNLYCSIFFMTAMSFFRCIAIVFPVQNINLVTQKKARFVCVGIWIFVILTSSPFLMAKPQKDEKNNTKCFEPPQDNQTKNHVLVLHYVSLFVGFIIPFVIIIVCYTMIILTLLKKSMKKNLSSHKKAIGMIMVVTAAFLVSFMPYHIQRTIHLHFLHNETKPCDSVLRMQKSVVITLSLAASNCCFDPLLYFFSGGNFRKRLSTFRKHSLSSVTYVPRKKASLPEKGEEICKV
Kind of assay: Cellular in vitro test to determine the CysLT1 activity (aequorin luminescence, CHO K1 cells). It counts as cell-based. The note with it: recombinant CHO K1 cells with aequorin and human CysLT1 receptor; antagonism of LTD4 (3×10^−9 M) induced calcium release; 15 minutes preincubation. The source says:
2. Cellular In Vitro Test to Determine the CysLT1 Activity
A recombinant cell line is used to identify antagonists of the human cysteinyl-leukotriene 1 receptor (CysLT1R) and to quantify the activity of the substances described herein. The cell is originally derived from a hamster ovary epithelial cell (Chinese Hamster Ovary, CHO K1, ATCC: American Type Culture Collection, Manassas, Va. 20108, USA). The test cell line constitutively expresses the calcium-sensitive photoprotein aequorin which, after reconstitution with the cofactor coelenterazine, emits light when the cytoplasmic calcium concentration is increased (Rizzuto R, Simpson A W, Brini M, Pozzan T.; Nature 358 (1992) 325-327). The cell is additionally stably transfected with the human CysLT1 receptor (Lynch et al., Nature 399 (1999) 789-793). The resulting CysLT1R test cell responds to stimulation of the recombinant CysLT1 receptor (agonist: leukotriene D4 (LTD4)) with an intracellular release of calcium ions, which can be quantified through the resulting aequorin luminescence with a suitable luminometer (Milligan G, Marshall F, Rees S, Trends in Pharmacological Sciences 17 (1996) 235-237). Preincubation with antagonists of the CysLT1 receptor reduces the calcium release induced by the agonist LTD4 and thus the measured amount of light.
(§1) Test procedure: The cells are plated out two days before the test in culture medium (DMEM/F12 with Glutamax, Gibco Cat. #61965-026; 10% FCS, Gibco Cat. #10270-106; 1.4 mM sodium pyruvate, Gibco Cat. #11360-039; 1.8 mM sodium bicarbonate, Gibco Cat. #25080-060; 10 mM HEPES, Gibco Cat. #15290-026; now belongs to Invitrogen GmbH, 76131 Karlsruhe) in 384- (or 1536-)well microtiter plates and kept in a cell incubator (96% humidity, 5% v/v CO2, 37° C.). On the day of the test, the culture medium is replaced by Tyrode solution (in mM: 140 NaCl, 5 KCl, 1 MgCl2, 2 CaCl2, 20 glucose, 20 HEPES) which additionally contains the cofactor coelenterazine (50 μM), and the microtiter plate is then incubated for a further 3-4 hours. 15 minutes after the test substances have been transferred into the wells of the microtiter plate, the resulting light signal is measured after addition of the LID4 (3×10^−9 M) in the luminometer.

The target in another assay is T2, human CysLT2 receptor (Homo sapiens, UniProt Q9NS75).
T2 construct: expressed in transfected cells; host or cells: CHO K1 cells constitutively expressing aequorin
T2 sequence (Q9NS75 1-346): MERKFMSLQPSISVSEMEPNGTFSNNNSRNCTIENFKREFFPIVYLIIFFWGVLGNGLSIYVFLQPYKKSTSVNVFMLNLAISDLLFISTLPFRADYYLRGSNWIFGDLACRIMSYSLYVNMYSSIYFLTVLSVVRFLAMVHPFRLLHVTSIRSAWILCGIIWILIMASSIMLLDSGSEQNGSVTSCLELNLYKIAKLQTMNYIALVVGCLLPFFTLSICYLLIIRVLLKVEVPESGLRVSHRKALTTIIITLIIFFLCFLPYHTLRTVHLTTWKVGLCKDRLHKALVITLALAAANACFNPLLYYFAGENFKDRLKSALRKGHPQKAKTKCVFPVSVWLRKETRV
As to the kind of experiment: Cellular in vitro test to determine the CysLT2 activity (aequorin luminescence, CHO K1 cells). It counts as cell-based. The following applies: recombinant CHO K1 cells with aequorin and human CysLT2 receptor; antagonism of LTD4 (3×10^−8 M) induced calcium release; 15 minutes preincubation.
Excerpt: 1. Cellular In Vitro Test to Determine the CysLT2 Activity
A recombinant cell line is used to identify antagonists of the human cysteinyl-leukotriene 2 receptor (CysLT2R) and to quantify the activity of the substances described herein. The cell is originally derived from a hamster ovary epithelial cell (Chinese Hamster Ovary, CHO K1, ATCC: American Type Culture Collection, Manassas, Va. 20108, USA). The test cell line constitutively expresses the calcium-sensitive photoprotein aequorin which, after reconstitution with the cofactor coelenterazine, emits light when the cytoplasmic calcium concentration is increased (Rizzuto R, Simpson A W, Brini M, Pozzan T.; Nature 358 (1992) 325-327). The cell is additionally stably transfected with the human CysLT2 receptor (Heise et.al., JBC 275 (2000) 30531-30536). The resulting CysLT2R test cell responds to stimulation of the recombinant CysLT2 receptor (agonists: leukotriene D4 (LTD4) and leukotriene C4 (LTC4)) with an intracellular release of calcium ions, which can be quantified through the resulting aequorin luminescence with a suitable luminometer (Milligan G, Marshall F, Rees S, Trends in Pharmacological Sciences 17 (1996) 235-237). Preincubation with antagonists of the CysLT2 receptor reduces the calcium release induced by the agonists LTD4 and LTC4 and thus the measured amount of light.
as §1, with “384-(or” for “384- (or”, “[…]” for “3-4”, “LTD4 (3×10^−8” for “LID4 (3×10^−9”

A word on the IC50: it is the concentration that gives 50% inhibition. Regarding `O=C(O)c1ccc(OCCCc2ccc(OCCCCOC3CCCCC3)cc2)c(CC(=O)N2CCCC(C(=O)O)C2)c1` (stereo not shown) [Example 25, 1-{[5-Carboxy-2-(3-{4-[4-(cyclohexyloxy)butoxy]phenyl}propoxy)phenyl]acetyl}piperidine-3-carboxylic acid], the IC50 at human CysLT1 receptor was above 10000 nM; at human CysLT2 receptor it was 45 nM.

Consider `O=C(O)CNC(=O)Cc1cc(C(=O)O)ccc1OCCCc1ccc(OCCCC2CCCCC2)cc1` [Example 45, 3-{2-[(Carboxymethyl)amino]-2-oxoethyl}-4-{3-[4-(3-cyclohexylpropoxy)phenyl]propoxy}-benzoic acid], for which the values for the IC50 at human CysLT1 receptor and on human CysLT2 receptor were above 3000 nM and 75 nM, respectively.

With `O=C(O)CCCNC(=O)Cc1cc(C(=O)O)ccc1OCCCc1ccc(OCCCC2CCCCC2)cc1` [Example 31, 3-{2-[(3-Carboxypropyl)amino]-2-oxoethyl}-4-{3-[4-(3-cyclohexylpropoxy)phenyl]propoxy}-benzoic acid], the concentration for half-maximal inhibition (IC50) is above 10000 nM on human CysLT1 receptor and 45 nM on human CysLT2 receptor.

For the compound `O=C(O)c1ccc(OCCCc2ccc(OCCCC3CCCCC3)cc2)c(CC(=O)N2CCC(C(=O)O)CC2)c1` [Example 33, 1-[(5-Carboxy-2-{3-[4-(3-cyclohexylpropoxy)phenyl]propoxy}phenyl)acetyl]piperidine-4-carboxylic acid], the IC50 on human CysLT1 receptor was above 3000 nM; at human CysLT2 receptor, 70 nM.

As to `O=C(O)CCCNC(=O)Cc1cc(C(=O)O)ccc1OCCCc1ccc(OCCCCOc2ccccc2)cc1` [Example 13, 3-{2-[(3-Carboxypropyl)amino]-2-oxoethyl}-4-{3-[4-(4-phenoxybutoxy)phenyl]propoxy}benzoic acid], the IC50 is above 10000 nM on human CysLT1 receptor and 140 nM at human CysLT2 receptor.
